Measured values taken from paper PMC10064330, “Reversible Dual-Covalent Molecular Locking of the 14-3-3/ERRγ Protein–Protein Interaction as a Molecular Glue Drug Discovery Approach” (Journal of the American Chemical Society, 2023).

Target: T1, 14-3-3γ/ERRγ complex (Homo sapiens, UniProt P61981+P62508)
T1 construct: made in house; host or cells: E. coli NiCo21 (DE3)
Experiment: Differential scanning fluorimetry (DSF)
Format: binding
Conditions: 5 μM 14-3-3γ, 200 μM compound, relative to DMSO; for ΔTm at 200 µM: read-out: increase in 14-3-3γ melting temperature (ΔTm)
Procedure: We screened the apo-14-3-3γ, the binary 14-3-3γ/ERRγ (10 eq.) complex, and the ternary complex of 14-3-3γ, the ERRγ phosphopeptide, and compounds 1 and 3–10 (Figure 2c and Figures S4 and S5). The DSF data corroborated the enhanced stabilization observed in the FA data, with molecular locks 5 and 10 eliciting 14-3-3γ melting temperature increases of 4.7 ± 0.2 and 6.0 ± 0.3 °C, respectively (Figure 2c).
Figure S4. Differential Scanning Fluorimetry. Raw melting curves (a-c, g-i) and derivatives of these melting curves (d-f, j-l) of 14-3-3γ (5 µM) with ERRγ (25 µM) incubated with either DMSO (black) or 200 µM compound 1-10.
(1 picture or pasted object on this page, not shown here)
Figure S5. Differential Scanning Fluorimetry. Raw melting curves (a-c) and derivatives of these melting curves (d-f) of 14-3-3γ (5 µM) with ERRγ (25 µM) incubated with either DMSO (black) or 200 µM compound 1-10. (g) […]
Differential Scanning Fluorimetry (DSF)
Different Scanning Fluorimetry (DSF) assays were performed using 40 µL samples containing 5 µM 14-3-3γ, 50 µM ERRγ pS179 9-mer peptide, 200 µM compound (or 1% DMSO) and 5x ProteoOrange (Lumiprobe, 5000x stock in DMSO) in 10 mM Hepes, 150 mM NaCl, 50 µM TCEP (pH 8.0). The samples were heated from 35 °C to 79 °C at a rate of 0.3 °C per 15 s in a CFX96 Touch Real-Time PCR Detection System (Bio-Rad). Fluorescence intensity was determined using excitation 470/40 nm and emission 570/20 nm filters. Based on these melting curves, the negative derivative melting curve is obtained from which the melting temperature Tm was determined. ΔTm values represent the differences in melting temperature relative to the DMSO control. All described melting temperatures are based on three independent experiments from which the average and standard deviations were determined using excel. […]
Washing steps were repeated three more times. […] Fluorescence was measured using the Tecan SPARK plate reader at room temperature with an excitation wavelength of 485 nm and an emission wavelength of 535 nm. Furthermore, fluorescence anisotropy of each sample was measured using the Tecan Infinite F500 plate reader at room temperature (lex: 485 ± 20 nm; lem: 535 ± 25 nm; mirror: Dichroic 510; flashes: 20; integration time: 50 ms; settle time: 0 ms; gain: 50; and Z-position: calculated from well) to determine whether all 14 -3-3γ was captured by the magnetic beads (should results in low anisotropy values in samp les after capturing in comparison to samples […]

T1 sequence (P61981 whole entry, other chains not shown): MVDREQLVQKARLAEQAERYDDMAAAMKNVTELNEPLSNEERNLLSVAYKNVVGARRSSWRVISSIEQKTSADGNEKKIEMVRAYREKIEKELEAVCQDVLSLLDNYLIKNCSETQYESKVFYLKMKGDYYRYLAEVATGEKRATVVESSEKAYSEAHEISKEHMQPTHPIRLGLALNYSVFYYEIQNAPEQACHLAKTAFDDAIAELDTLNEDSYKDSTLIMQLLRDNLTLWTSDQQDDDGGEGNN

Structure (SMILES) | ΔTm at 200 µM (ERRγ 10 eq.) | also measured
CN(C)CCSSCCN(C)C(=O)c1cccc(F)c1 [compound 1, reference compound] | – | decrease in melting temperature (ERRγ): 2.6 °C
CN(C)CCSSCCN(C)C(=O)c1cc(Br)cc(C=O)c1 [compound 10] | 6 ± 0.3 °C | –
CN(C)CCSSCCN(C)C(=O)c1ccc(C=O)c(F)c1 [compound 5] | 4.7 ± 0.2 °C | –
CN(C)CCNC(=O)c1ccc(C=O)c(F)c1 [compound 3] | – | increase in 14-3-3γ melting temperature (ΔTm) (ERRγ 10 eq.): no significant change
